Measured values reported in patent US20260176282A1, “BICYCLIC COMPOUNDS AS CDK INHIBITORS” (BEONE MEDICINES I GMBH, priority 2023, published 2026).
pIC50: −log10 of the molar value. Read-outs that look alike come from different tables or passages of the source.

What was measured:
CDK2/Cyclin E1 = CDK2/Cyclin E1 (Homo sapiens, UniProt P24941); assay: CDK2/Cyclin E1 TR-FRET biochemical assay (1 mM ATP); conditions: 90 minutes reaction
Method: (§1) Compounds disclosed herein were tested for inhibition of CDK2/Cyclin E1 or CDK1/Cyclin B1 kinase in an assay based on the time-resolved fluorescence-resonance energy transfer (TR-FRET) methodology. The assay was carried out in 384-well low volume black plates in a reaction mixture containing CDK2/Cyclin E1 or CDK1/Cyclin B1, 1 mM ATP for CDK2/Cyclin E1 and CDK1/Cyclin B1, 0.15 μM Rb (Ser780)-biotin substrate and 0-10 μM compound in buffer containing 50 mM HEPES pH7.0, 0.02% NaN3, 0.01% BSA, 0.1 mM Orthovanadate, 50 mM MgCl2, 1 mM DTT and 0.005% Tween-20. The kinase was incubated with compound for 60 minutes at room temperature and the reaction was initiated by the addition of ATP and Rb (Ser780)-biotin substrate. After reaction at room temperature for 90 minutes, an equal volume of stop/detection solution was added according to the manufacture's instruction (Cisbio Bioassays). The stop/detection solution contained Streptavidin-XL665 and Anti-pRb (Ser780) mAb-Eu Cryptate in Detection buffer (Cisbio Bioassays). Plates were incubated at room temperature for 60 minutes, and the TR-FRET signals (ex337 nm, em665 nm/620 nm) were recorded on a PHERAstar FSX plate reader (BMG Labtech). The inhibition percentage of CDK2/Cyclin E1 or CDK1/Cyclin B1 kinase activity in presence of increasing concentrations of compounds was calculated based on the ratio of fluorescence at 665 nm to that at 620 nm. The IC50 for each compound was derived from fitting the data to the four-parameter logistic equation by Dotmatics.

CDK1/Cyclin B1 = CDK1/Cyclin B1 (Homo sapiens, UniProt P06493); assay: CDK1/Cyclin B1 TR-FRET biochemical assay (1 mM ATP); conditions: 90 minutes reaction
Method: as §1

HEK-293 cells = assay: HEK-293 cell cytotoxicity detection (CellTiter-Glo); type: cell-based; conditions: incubation of 72 h, CellTiter-Glo luminescence
Method: HEK-293 cells were treated with compounds diluted in 0.4% DMSO, dilution was done according to the following protocol: (1) making 250× stock solution in DMSO from 10 mM by 4-fold dilution, total 8 doses were included; (2) making 2 solution in cell culture medium by transferring 1 μl 250× stock solution into 124 μl medium; (3) adding 50 μl of 2× solution to cells for incubation of 72 h.
25 μl of the CellTiter-Glo® Reagent [(PromegaCat #G9242)] was added to each well in the 96-well plate. The contents were mixed for 2 minutes on an orbital shaker to induce cell lysis. The plate was then allowed to incubate at room temperature for 10 minutes to stabilize luminescent signal. Luminescence was recorded on BMG PheraStar with luminescence protocol.
The IC50 value of a compound can be obtained by fitting the following equation: […]
Wherein, X and Y are known values, and IC50, Hillslope, Top and Bottom are the parameters obtained by fitting with software. Y is the inhibition percentage (calculated from the equation), X is the concentration of the compound; IC50 is the concentration of the compound when the 50% inhibition is reached. The smaller the IC50 value is, the stronger the inhibitory ability of the compound is. Vice versa, the higher the IC50 value is, the weaker the ability the inhibitory ability of the compound is; Hillslope represents the slope of the fitted curve, generally around 1*; Bottom represents the minimum value of the curve obtained by data fitting, which is generally 0%±20%; Top represents the maximum value of the curve obtained by data fitting, which is generally 100%±20%. The experimental data were fitted by calculating and analyzing with Dotmatics data analysis software.

CDK1/Cyclin B1, sequence (P06493 whole entry): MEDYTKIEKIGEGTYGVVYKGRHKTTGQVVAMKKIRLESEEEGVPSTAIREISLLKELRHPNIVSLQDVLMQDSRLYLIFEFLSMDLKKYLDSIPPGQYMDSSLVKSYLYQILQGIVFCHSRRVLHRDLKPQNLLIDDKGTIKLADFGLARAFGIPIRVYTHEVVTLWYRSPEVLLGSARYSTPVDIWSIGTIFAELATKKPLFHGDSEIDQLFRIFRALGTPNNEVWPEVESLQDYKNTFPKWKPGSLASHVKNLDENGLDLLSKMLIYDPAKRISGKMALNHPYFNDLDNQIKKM
CDK1/Cyclin B1, sequence (P14635 whole entry partner): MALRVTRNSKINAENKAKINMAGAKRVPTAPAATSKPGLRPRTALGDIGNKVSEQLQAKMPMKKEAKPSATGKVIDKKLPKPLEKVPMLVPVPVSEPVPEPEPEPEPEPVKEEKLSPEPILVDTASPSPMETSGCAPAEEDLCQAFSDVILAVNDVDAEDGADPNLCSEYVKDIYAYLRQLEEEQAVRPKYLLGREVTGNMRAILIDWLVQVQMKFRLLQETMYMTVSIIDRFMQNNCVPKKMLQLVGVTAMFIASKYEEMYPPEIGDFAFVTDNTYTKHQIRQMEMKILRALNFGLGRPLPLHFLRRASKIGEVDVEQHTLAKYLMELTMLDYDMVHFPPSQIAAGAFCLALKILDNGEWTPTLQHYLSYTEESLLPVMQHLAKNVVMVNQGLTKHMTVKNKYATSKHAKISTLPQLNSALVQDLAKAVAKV

Compound	pIC50 (CDK2/Cyclin E1)	pIC50 (CDK1/Cyclin B1)	pIC50 (HEK-293 cells; Homo sapiens, HEK293, 72 h)	pIC50 (HEK-293 cells; read-out: HEK293 IC50)
O=C(NC1CCC1)O[C@H]1CC[C@@H](c2cc(Nc3ccc4c(c3F)CS(=O)(=O)C4)n[nH]2)C1 (relative stereo) [Example 12, cis-3-(3-((4-fluoro-2,2-dioxido-1,3-dihydrobenzo[c]thiophen-5-yl)amino)-1H-pyrazol-5-yl)cyclopentyl cyclobutylcarbamate]	8.92	6.22	6.30	
O=C(NCCC(F)(F)F)O[C@H]1CC[C@@H](c2cc(Nc3ccc4c(c3F)CS(=O)(=O)C4)n[nH]2)C1 (relative stereo) [Example 16, cis-3-(3-((4-fluoro-2,2-dioxido-1,3-dihydrobenzo[c]thiophen-5-yl)amino)-1H-pyrazol-5-yl)cyclopentyl (3,3,3-trifluoropropyl)carbamate]	9.15	6.81	6.16	
CC(C)(CO)NC(=O)O[C@H]1CC[C@@H](c2cc(Nc3ccc4c(c3F)CS(=O)(=O)C4)n[nH]2)C1 (relative stereo) [Example 19, cis-3-(3-((4-fluoro-2,2-dioxido-1,3-dihydrobenzo[c]thiophen-5-yl)amino)-1H-pyrazol-5-yl)cyclopentyl (1-hydroxy-2-methylpropan-2-yl)carbamate]	9.10	6.74	6.70	
O=C(NC1COC1)O[C@H]1CC[C@@H](c2cc(Nc3ccc4c(c3F)CS(=O)(=O)C4)n[nH]2)C1 (relative stereo) [Example 20, cis-3-(3-((4-fluoro-2,2-dioxido-1,3-dihydrobenzo[c]thiophen-5-yl)amino)-1H-pyrazol-5-yl)cyclopentyl oxetan-3-ylcarbamate]	7.51	5.32	< 5.00	
CN(C(=O)O[C@H]1CC[C@@H](c2cc(Nc3ccc4c(c3F)CS(=O)(=O)C4)n[nH]2)C1)C1CCOC1 (relative stereo) [Example 21, cis-3-(3-((4-fluoro-2,2-dioxido-1,3-dihydrobenzo[c]thiophen-5-yl)amino)-1H-pyrazol-5-yl)cyclopentyl methyl(tetrahydrofuran-3-yl)carbamate]	7.62	5.58	< 5.00	
O=C(NCC(F)(F)F)O[C@H]1CC[C@@H](c2cc(Nc3ccc4c(c3F)CS(=O)(=O)C4)n[nH]2)C1 (relative stereo) [Example 22, cis-3-(3-((4-fluoro-2,2-dioxido-1,3-dihydrobenzo[c]thiophen-5-yl)amino)-1H-pyrazol-5-yl)cyclopentyl (2,2,2-trifluoroethyl)carbamate]	8.35	5.98	< 5.00	
O=C(NC1CCCC1)O[C@H]1CC[C@@H](c2cc(Nc3ccc4c(c3F)CS(=O)(=O)C4)n[nH]2)C1 (relative stereo) [Example 23, cis-3-(3-((4-fluoro-2,2-dioxido-1,3-dihydrobenzo[c]thiophen-5-yl)amino)-1H-pyrazol-5-yl)cyclopentyl cyclopentylcarbamate]	9.05	6.39	5.54	
CC(C)NC(=O)O[C@H]1CC[C@@H](c2cc(Nc3cc4c(cc3F)CS(=O)(=O)C4)n[nH]2)C1 (relative stereo) [Example 27, cis-3-(3-((6-fluoro-2,2-dioxido-1,3-dihydrobenzo[c]thiophen-5-yl)amino)-1H-pyrazol-5-yl)cyclopentyl isopropylcarbamate]	7.48	5.13	< 5.00	
Cc1cc2c(cc1Nc1cc([C@@H]3CC[C@H](OC(=O)NC(C)C)C3)[nH]n1)CS(=O)(=O)C2 (relative stereo) [Example 28, cis-3-(3-((6-methyl-2,2-dioxido-1,3-dihydrobenzo[c]thiophen-5-yl)amino)-1H-pyrazol-5-yl)cyclopentyl isopropylcarbamate]	8.03	5.54	< 5.00	
CC(C)NC(=O)O[C@H]1CC[C@@H](c2cc(Nc3cc4c(cc3F)C[S+]([O-])C4)n[nH]2)C1 (relative stereo) [Example 29, cis-3-(3-((6-fluoro-2-oxido-1,3-dihydrobenzo[c]thiophen-5-yl)amino)-1H-pyrazol-5-yl)cyclopentyl isopropylcarbamate]	6.24	< 5.00	< 5.00	
CC(C)NC(=O)O[C@H]1CC[C@@H](c2cc(Nc3cc4c(cc3F)CSC4)n[nH]2)C1 (relative stereo) [Example 30, cis-3-(3-((6-fluoro-1,3-dihydrobenzo[c]thiophen-5-yl)amino)-1H-pyrazol-5-yl)cyclopentyl isopropylcarbamate]	6.42	< 5.00	< 5.00	
CC(C)NC(=O)O[C@H]1CC[C@@H](c2cc(Nc3ccc4c(c3F)C[S+]([O-])C4)n[nH]2)C1 (relative stereo) [Example 31, cis-3-(3-((4-fluoro-2-oxido-1,3-dihydrobenzo[c]thiophen-5-yl)amino)-1H-pyrazol-5-yl)cyclopentyl isopropylcarbamate]	8.28	5.47	5.80	
CCN(C)C(=O)O[C@H]1CC[C@@H](c2cc(Nc3ccc4c(c3F)CS(=O)(=O)C4)n[nH]2)C1 (relative stereo) [Example 32, cis-3-(3-((4-fluoro-2,2-dioxido-1,3-dihydrobenzo[c]thiophen-5-yl)amino)-1H-pyrazol-5-yl)cyclopentyl ethyl(methyl)carbamate]	8.38	6.31	< 5.00	
CC(C)NC(=O)O[C@H]1CC[C@@H](c2cc(Nc3ccc4c(c3F)CSC4)n[nH]2)C1 (relative stereo) [Example 33, cis-3-(3-((4-fluoro-1,3-dihydrobenzo[c]thiophen-5-yl)amino)-1H-pyrazol-5-yl)cyclopentyl isopropylcarbamate]	7.66	5.31	< 5.00	
Cc1c(Nc2cc([C@@H]3CC[C@H](OC(=O)NC(C)C)C3)[nH]n2)ccc2c1CS(=O)(=O)C2 (relative stereo) [Example 35, cis-3-(3-((4-methyl-2,2-dioxido-1,3-dihydrobenzo[c]thiophen-5-yl)amino)-1H-pyrazol-5-yl)cyclopentyl isopropylcarbamate]	9.40	6.77	6.13	
CC1(NC(=O)OC2CCC(c3cc(Nc4ccc5c(c4F)CS(=O)(=O)C5)n[nH]3)C2)CCOC1 (single isomer, unassigned) [Example 13a, cis-3-(3-((4-fluoro-2,2-dioxido-1,3-dihydrobenzo[c]thiophen-5-yl)amino)-1H-pyrazol-5-yl)cyclopentyl (3-methyltetrahydrofuran-3-yl)carbamate]	9.30	6.31		5.67
CC1(NC(=O)OC2CCC(c3cc(Nc4ccc5c(c4F)CS(=O)(=O)C5)n[nH]3)C2)CCOC1 (single isomer, unassigned) [Example 13b, cis-3-(3-((4-fluoro-2,2-dioxido-1,3-dihydrobenzo[c]thiophen-5-yl)amino)-1H-pyrazol-5-yl)cyclopentyl (3-methyltetrahydrofuran-3-yl)carbamate]	9.22	6.45		6.25
CC1(NC(=O)OC2CCC(c3cc(Nc4ccc5c(c4F)CS(=O)(=O)C5)n[nH]3)C2)CCOC1 (single isomer, unassigned) [Example 13c, cis-3-(3-((4-fluoro-2,2-dioxido-1,3-dihydrobenzo[c]thiophen-5-yl)amino)-1H-pyrazol-5-yl)cyclopentyl (3-methyltetrahydrofuran-3-yl)carbamate]	9.30	6.68		5.76
